Data: PubChem BioAssay (NCI)
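Test compounds were applied to cells in 96-well plates for 48 hours at 5 doses. GI50 marks 50% less growth. TGI: total growth inhibition.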

Assays:
Test in all cases: NCI tumour cell line growth inhibition, 48 h
786-0 renal = test system: 786-0 renal
A498 renal = test system: A498 renal
A549 NSCLC = test system: A549 NSCLC
ACHN renal = test system: ACHN renal
BT-549 breast = test system: BT-549 breast
CAKI-1 renal = test system: CAKI-1 renal
CCRF-CEM leukemia = test system: CCRF-CEM leukemia
COLO 205 colon = test system: COLO 205 colon
DU-145 prostate = test system: DU-145 prostate
EKVX NSCLC = test system: EKVX NSCLC
HCC-2998 colon = test system: HCC-2998 colon
HCT-116 colon = test system: HCT-116 colon
HCT-15 colon = test system: HCT-15 colon
HL-60(TB) leukemia = test system: HL-60(TB) leukemia
HOP-62 NSCLC = test system: HOP-62 NSCLC
HOP-92 NSCLC = test system: HOP-92 NSCLC
HS 578T breast = test system: HS 578T breast
HT29 colon = test system: HT29 colon
IGROV1 ovarian = test system: IGROV1 ovarian
K-562 leukemia = test system: K-562 leukemia
KM12 colon = test system: KM12 colon
LOX IMVI melanoma = test system: LOX IMVI melanoma
M14 melanoma = test system: M14 melanoma
MALME-3M melanoma = test system: MALME-3M melanoma
MCF7 breast = test system: MCF7 breast
MDA-MB-231 breast = test system: MDA-MB-231 breast
MDA-MB-435 = test system: MDA-MB-435
MOLT-4 leukemia = test system: MOLT-4 leukemia
NCI-H226 lung = test system: NCI-H226 lung
NCI-H23 lung = test system: NCI-H23 lung
NCI-H460 lung = test system: NCI-H460 lung
NCI-H522 lung = test system: NCI-H522 lung
NCI/ADR-RES ovarian = test system: NCI/ADR-RES ovarian
OVCAR-4 ovarian = test system: OVCAR-4 ovarian
OVCAR-5 ovarian = test system: OVCAR-5 ovarian
OVCAR-8 ovarian = test system: OVCAR-8 ovarian
PC-3 prostate = test system: PC-3 prostate
RPMI-8226 leukemia = test system: RPMI-8226 leukemia
RXF 393 renal = test system: RXF 393 renal
SF-268 CNS = test system: SF-268 CNS
SF-295 CNS = test system: SF-295 CNS
SF-539 CNS = test system: SF-539 CNS
SK-MEL-2 melanoma = test system: SK-MEL-2 melanoma
SK-MEL-28 melanoma = test system: SK-MEL-28 melanoma
SK-MEL-5 melanoma = test system: SK-MEL-5 melanoma
SK-OV-3 ovarian = test system: SK-OV-3 ovarian
SN12C renal = test system: SN12C renal
SNB-19 CNS = test system: SNB-19 CNS
SNB-75 CNS = test system: SNB-75 CNS
SR leukemia = test system: SR leukemia
SW-620 colon = test system: SW-620 colon
T-47D breast = test system: T-47D breast
TK-10 renal = test system: TK-10 renal
U251 CNS = test system: U251 CNS
UACC-257 melanoma = test system: UACC-257 melanoma
UACC-62 melanoma = test system: UACC-62 melanoma
UO-31 renal = test system: UO-31 renal

How did the GI50 (786-0 renal) turn out when `Cn1ccnc1C(=O)/C=C/c1ccc(CNC(=O)c2ccc(S(F)(F)(F)(F)F)cc2)cc1` was run?
The GI50 was 4.09 µM.

And the TGI (786-0 renal)?
Its TGI is 8.27 µM.

What about the GI50 (A498 renal) of the same molecule?
Its GI50 is 3.41 µM.

And the TGI (A498 renal)?
The TGI was 6.84 µM.

What about the GI50 (A549 NSCLC) of the same molecule?
The GI50 was 5.92 µM.

And the TGI (A549 NSCLC)?
The TGI was > 25 µM.

And the GI50 (ACHN renal)?
The GI50 was 4.23 µM.

What about the TGI (ACHN renal) of the same molecule?
The TGI was 7.74 µM.

And the GI50 (BT-549 breast)?
Its GI50 is 3.49 µM.

What about the TGI (BT-549 breast) of the same molecule?
Its TGI is 7.63 µM.

What about the GI50 (CAKI-1 renal) of the same molecule?
Its GI50 is 3.26 µM.

And the TGI (CAKI-1 renal)?
Its TGI is 6.9 µM.

What about the GI50 (CCRF-CEM leukemia) of the same molecule?
The GI50 was 3.25 µM.

What about the TGI (CCRF-CEM leukemia) of the same molecule?
Its TGI is > 25 µM.

What about the GI50 (COLO 205 colon) of the same molecule?
The GI50 was 4.22 µM.

What about the TGI (COLO 205 colon) of the same molecule?
Its TGI is 9.07 µM.

What about the GI50 (DU-145 prostate) of the same molecule?
The GI50 was 3.26 µM.

What about the TGI (DU-145 prostate) of the same molecule?
Its TGI is 6.6 µM.

What about the GI50 (EKVX NSCLC) of the same molecule?
The GI50 was 4.38 µM.

What about the TGI (EKVX NSCLC) of the same molecule?
The TGI was 10.3 µM.

What about the GI50 (HCC-2998 colon) of the same molecule?
Its GI50 is 3.7 µM.

What about the TGI (HCC-2998 colon) of the same molecule?
The TGI was 7.17 µM.

And the GI50 (HCT-116 colon)?
Its GI50 is 3.17 µM.

And the TGI (HCT-116 colon)?
Its TGI is 7.36 µM.

And the GI50 (HCT-15 colon)?
The GI50 was 1.36 µM.

And the TGI (HCT-15 colon)?
Its TGI is 6.49 µM.

And the GI50 (HL-60(TB) leukemia)?
The GI50 was 4.87 µM.

What about the TGI (HL-60(TB) leukemia) of the same molecule?
The TGI was 17.1 µM.

What about the GI50 (HOP-62 NSCLC) of the same molecule?
The GI50 was 4.31 µM.

What about the TGI (HOP-62 NSCLC) of the same molecule?
Its TGI is 9.55 µM.

What about the GI50 (HOP-92 NSCLC) of the same molecule?
The GI50 was 4.38 µM.

And the TGI (HOP-92 NSCLC)?
Its TGI is 12.1 µM.

What about the GI50 (HS 578T breast) of the same molecule?
Its GI50 is 5.45 µM.

And the TGI (HS 578T breast)?
Its TGI is 21.4 µM.

And the GI50 (HT29 colon)?
The GI50 was 3.9 µM.

And the TGI (HT29 colon)?
The TGI was 8.68 µM.

And the GI50 (IGROV1 ovarian)?
The GI50 was 3.76 µM.

And the TGI (IGROV1 ovarian)?
Its TGI is 10.6 µM.

What about the GI50 (K-562 leukemia) of the same molecule?
The GI50 was 1.05 µM.

What about the TGI (K-562 leukemia) of the same molecule?
The TGI was > 25 µM.

And the GI50 (KM12 colon)?
The GI50 was 2.8 µM.

And the TGI (KM12 colon)?
Its TGI is 6.02 µM.

And the GI50 (LOX IMVI melanoma)?
Its GI50 is 1.12 µM.

What about the TGI (LOX IMVI melanoma) of the same molecule?
The TGI was 4.2 µM.

And the GI50 (M14 melanoma)?
The GI50 was 4.58 µM.

What about the TGI (M14 melanoma) of the same molecule?
Its TGI is 9.4 µM.

What about the GI50 (MALME-3M melanoma) of the same molecule?
The GI50 was 4.85 µM.

And the TGI (MALME-3M melanoma)?
The TGI was 12 µM.

What about the GI50 (MCF7 breast) of the same molecule?
Its GI50 is 0.868 µM.

And the TGI (MCF7 breast)?
The TGI was 4.79 µM.

What about the GI50 (MDA-MB-231 breast) of the same molecule?
Its GI50 is 5.57 µM.

What about the TGI (MDA-MB-231 breast) of the same molecule?
The TGI was 18.9 µM.

And the GI50 (MDA-MB-435)?
Its GI50 is 5.76 µM.

And the TGI (MDA-MB-435)?
Its TGI is 16.1 µM.

And the GI50 (MOLT-4 leukemia)?
The GI50 was 5.53 µM.

What about the TGI (MOLT-4 leukemia) of the same molecule?
The TGI was 22.5 µM.

What about the GI50 (NCI-H226 lung) of the same molecule?
The GI50 was 5.84 µM.

And the TGI (NCI-H226 lung)?
Its TGI is > 25 µM.

And the GI50 (NCI-H23 lung)?
The GI50 was 3.02 µM.

What about the TGI (NCI-H23 lung) of the same molecule?
Its TGI is 7.69 µM.

What about the GI50 (NCI-H460 lung) of the same molecule?
Its GI50 is 3.34 µM.

What about the TGI (NCI-H460 lung) of the same molecule?
Its TGI is 9.53 µM.

And the GI50 (NCI-H522 lung)?
Its GI50 is 4.11 µM.

And the TGI (NCI-H522 lung)?
Its TGI is 8.23 µM.

What about the GI50 (NCI/ADR-RES ovarian) of the same molecule?
Its GI50 is 5.71 µM.

What about the TGI (NCI/ADR-RES ovarian) of the same molecule?
The TGI was > 25 µM.

And the GI50 (OVCAR-4 ovarian)?
Its GI50 is 3.64 µM.

What about the TGI (OVCAR-4 ovarian) of the same molecule?
Its TGI is 11.3 µM.

What about the GI50 (OVCAR-5 ovarian) of the same molecule?
Its GI50 is 4.48 µM.

What about the TGI (OVCAR-5 ovarian) of the same molecule?
The TGI was 11.6 µM.

And the GI50 (OVCAR-8 ovarian)?
Its GI50 is 6.54 µM.

What about the TGI (OVCAR-8 ovarian) of the same molecule?
The TGI was > 25 µM.

And the GI50 (PC-3 prostate)?
Its GI50 is 3.64 µM.

What about the TGI (PC-3 prostate) of the same molecule?
The TGI was 10.3 µM.

And the GI50 (RPMI-8226 leukemia)?
Its GI50 is 1.3 µM.

And the TGI (RPMI-8226 leukemia)?
The TGI was 8.28 µM.

And the GI50 (RXF 393 renal)?
The GI50 was 3.53 µM.

What about the TGI (RXF 393 renal) of the same molecule?
Its TGI is 7.41 µM.

And the GI50 (SF-268 CNS)?
The GI50 was 3.44 µM.

And the TGI (SF-268 CNS)?
The TGI was 7.52 µM.

What about the GI50 (SF-295 CNS) of the same molecule?
Its GI50 is 3.6 µM.

What about the TGI (SF-295 CNS) of the same molecule?
Its TGI is 7.15 µM.

And the GI50 (SF-539 CNS)?
Its GI50 is 3.37 µM.

And the TGI (SF-539 CNS)?
The TGI was 7.04 µM.

And the GI50 (SK-MEL-2 melanoma)?
Its GI50 is 4.24 µM.

What about the TGI (SK-MEL-2 melanoma) of the same molecule?
Its TGI is 9.22 µM.

What about the GI50 (SK-MEL-28 melanoma) of the same molecule?
Its GI50 is 5.2 µM.

What about the TGI (SK-MEL-28 melanoma) of the same molecule?
Its TGI is 11.4 µM.

And the GI50 (SK-MEL-5 melanoma)?
Its GI50 is 4.57 µM.

And the TGI (SK-MEL-5 melanoma)?
The TGI was 8.52 µM.

And the GI50 (SK-OV-3 ovarian)?
The GI50 was 7.7 µM.

What about the TGI (SK-OV-3 ovarian) of the same molecule?
Its TGI is > 25 µM.

And the GI50 (SN12C renal)?
Its GI50 is 5.74 µM.

And the TGI (SN12C renal)?
Its TGI is 18.6 µM.

And the GI50 (SNB-19 CNS)?
The GI50 was 3.21 µM.

And the TGI (SNB-19 CNS)?
Its TGI is 7.07 µM.

And the GI50 (SNB-75 CNS)?
The GI50 was 2.12 µM.

And the TGI (SNB-75 CNS)?
The TGI was 5.41 µM.

What about the GI50 (SR leukemia) of the same molecule?
The GI50 was 0.854 µM.

What about the TGI (SR leukemia) of the same molecule?
Its TGI is > 25 µM.

And the GI50 (SW-620 colon)?
Its GI50 is 1.66 µM.

What about the TGI (SW-620 colon) of the same molecule?
Its TGI is 5.85 µM.

What about the GI50 (T-47D breast) of the same molecule?
Its GI50 is 4.32 µM.

And the TGI (T-47D breast)?
The TGI was 18.6 µM.

And the GI50 (TK-10 renal)?
Its GI50 is 4.38 µM.

And the TGI (TK-10 renal)?
Its TGI is 9.15 µM.

What about the GI50 (U251 CNS) of the same molecule?
Its GI50 is 1.45 µM.

What about the TGI (U251 CNS) of the same molecule?
Its TGI is 5.33 µM.

What about the GI50 (UACC-257 melanoma) of the same molecule?
Its GI50 is 5.73 µM.

And the TGI (UACC-257 melanoma)?
Its TGI is 15.2 µM.

And the GI50 (UACC-62 melanoma)?
The GI50 was 3.98 µM.

What about the TGI (UACC-62 melanoma) of the same molecule?
Its TGI is 9.1 µM.

What about the GI50 (UO-31 renal) of the same molecule?
The GI50 was 3.36 µM.

And the TGI (UO-31 renal)?
The TGI was 6.59 µM.
